Earlier results, collected in US20100210573A1, “COMPOUND AND COMPOSITIONS FOR TREATMENT OF DISEASE” (Citrox Limited, priority 2008, published 2010).

Key:
[1] = tested on: Leishmania donovani promastigotes and amastigotes; conditions: in vitro; Mittra et al., Molecular Medicine 6, 2000
[2] = tested on: Trypanosoma brucei gambiense; conditions: cell cultures; Antimicrobial Agents and Chemother. 48, 2004

In the case of O=c1cc(-c2ccc(O)c(O)c2)oc2cc(O)cc(O)c12 [Luteolin], the “growth of Leishmania donovani promastigotes and amastigotes” value [1] is given as “inhibit the growth”.
For O=c1c(O)c(-c2ccc(O)c(O)c2)oc2cc(O)cc(O)c12 [Quercetin], the “growth of Leishmania donovani promastigotes and amastigotes” value [1] is listed as “inhibit the growth” and the “apoptosis of Trypanosoma brucei gambiense” value [2] is listed as “induce apoptosis”.
